Values quoted from earlier work in patent US20030165581A1, “Compositions for treating diabetes mellitus, methods of use and manufacturing process of the same” (priority 2002, published 2003).
Read-outs that look alike come from different tables or passages of the source.

Key:
[1] = system: human subjects with mild Type II diabetes
Type II diabetic rats = details: supplementation with corosolic acid; control group showed elevation
[2] = system: rats with experimentally induced diabetes; details: reduced from 300 mg/dL
[3] = system: subjects with mild Type II diabetes; details: for drop of average blood glucose level compared to placebo: dry powder base, two-piece hard gelatin capsule; for drop of average blood glucose level: oil based soft gelatin capsule, two weeks
mice = details: oral dose
[4] = system: hereditary Type II diabetic mice
[5] = system: Ehrlich ascites tumor cells; details: time course of glucose uptake
[6] = system: subjects with mild Type II diabetes; details: for average blood glucose level: soft gelatin formulation, 48 mg daily, control 168.3
[7] = supplemented with corosolic acid

SMILES: C[C@H]1[C@H](C)CC[C@]2(C(=O)O)CC[C@]3(C)C(=CC[C@@H]4[C@@]5(C)C[C@@H](O)[C@H](O)C(C)(C)[C@@H]5CC[C@]43C)[C@H]12 [corosolic acid]
- adverse effects ([1]; short-term (four weeks) treatment): no signs of adverse effects
- blood glucose levels ([1]; tablet after each meal three times daily, four weeks, vs placebo): effective in reducing blood glucose levels
- time of peak reduction after administration (normal rabbits; after large doses): two to four
- blood sugar reduction (normal rabbits; large doses): more than 57 mg per 100 mL blood
- time blood sugar remained low (normal rabbits; repetition of the first dose after two more hours): more than 5 hours
- glucose levels (Type II diabetic rats): decrease in glucose levels
- blood sugar level after corosolic acid [2]: 150 mg/dL
- drop of average blood glucose level compared to placebo ([3]; 16 mg per day): 3.18%
- drop of average blood glucose level compared to placebo ([3]; 32 mg per day): 6.5%
- drop of average blood glucose level compared to placebo ([3]; 48 mg per day): 20.2%
- drop of average blood glucose level ([3]; 16 mg per day): 4.9%
- drop of average blood glucose level ([3]; 32 mg per day): 10.7%
- drop of average blood glucose level ([3]; 48 mg per day): 31.9%
- blood sugar levels (mice): reduces blood sugar levels
- increase of plasma glucose levels ([4]; diet including corosolic acid for five weeks vs control diet): completely suppressed
- level of serum insulin [4, 7]: lowered
- total plasma cholesterol [4, 7]: lowered
- urinary excreted glucose [4, 7]: lowered
- glucose transport-stimulating activity (glucose uptake by Ehrlich cells) [5]: significant glucose transport-stimulating activity
- blood glucose level during washout ([6]; 15 days of washout after soft gelatin treatment): 131.7 mg/dL
- blood glucose level during washout ([6]; 30 days of washout after soft gelatin treatment): 153.2 mg/dL
- blood glucose level during washout ([6]; 45 days of washout after soft gelatin treatment): 168.2 mg/dL
- decline in blood glucose levels after a meal ([6]; compared to untreated (diabetic) control conditions): sharper decline
- weight loss ([6]; dry-powder based formulation): no weight loss
- average weight loss ([6]; oil-based formulation in a soft gelatin capsule): 3.2 pounds
- adverse effects ([6]; oral dose, cross-over study): no signs of adverse effects
- average blood glucose level ([6]; 15th day of treatment): 127.2 mg/deciliter
- average blood glucose level ([6]; 30th day of treatment): 115.1 mg/deciliter
- memory effect after termination of the treatment ([6]; washout period blood glucose levels): up to four
